The text below walks through data of ChEMBL document CHEMBL1155069, “Beta-ketophosphonates as beta-lactamase inhibitors: Intramolecular cooperativity between the hydrophobic subsites of a class D beta-lactamase” (Bioorg Med Chem, 2008).

As usually defined, the Ki is a dissociation constant, usually derived from enzyme kinetics or from competition with a known ligand. Low readings indicate higher affinity, high ones lower affinity.

Molecules are shown by their SMILES.

Assay [1] can be described thus: Inhibition of Escherichia coli TEM2 class A beta-lactamase by spectrophotometry.
Assay [2] can be described thus: Inhibition of Escherichia coli OXA1 class D beta-lactamase by spectrophotometry.
Assay [3] in a line: Inhibition of Enterobacter cloacae P99 class C beta-lactamase by spectrophotometry.
Assay [4] is described as follows: Inhibition of Escherichia coli OXA10 class D beta-lactamase by spectrophotometry.

With `O=C(CP(=O)(O)OCc1ccccc1)c1ccccc1` [SODIUM BENZYL PHENACYLPHOSPHONATE], the Ki is 150 µM in assay [1], 640 µM in assay [2], 670 µM in assay [3] and > 1000 µM in assay [4].
As to `O=C(CP(=O)(O)Oc1ccccc1)c1ccccc1` [SODIUM PHENYL PHENACYLPHOSPHONATE], the Ki in assay [2] is 1050 µM; in assay [3] it was 200 µM; in assay [4], > 1000 µM.
As to `O=P(O)(CC(O)c1ccccc1)OCc1ccccc1` (racemic), the Ki in assay [1] was > 1000 µM; in assay [2], 440 µM; in assay [3], 1080 µM.
For `O=C(CP(=O)(O)OCc1ccc(-c2ccccc2)cc1)c1ccccc1`, the Ki in assay [2] was 200 µM; in assay [4] it was > 1000 µM.
As for `O=P(O)(CC(O)c1ccc(-c2ccccc2)cc1)OCc1ccccc1` (racemic), the Ki in assay [1] was > 1000 µM; in assay [2], 300 µM; in assay [3], 260 µM.
Turning to `O=C(CP(=O)(O)OCc1ccc(-c2ccccc2)cc1)c1ccc(-c2ccccc2)cc1`, the Ki is 6 µM in assay [2], 74 µM in assay [3] and 200 µM in assay [4].
Take `O=C(CP(=O)(O)Oc1ccccc1)c1c(F)c(F)c(F)c(F)c1F` [SODIUM PHENYL PENTAFLUOROPHENACYLPHOSPHONATE]: the Ki in assay [1] was 475 µM; in assay [2], 380 µM; in assay [3] it was 350 µM; in assay [4], > 1000 µM.
For `O=C(CP(=O)(O)Oc1ccccc1)c1ccc(-c2ccccc2)cc1`, the Ki in assay [1] turned out to be 920 µM; in assay [2] it was 140 µM; in assay [3] it was 100 µM.
The corresponding values for `O=C(CP(=O)(O)OCc1ccccc1)c1nc2ccccc2s1` are 3600 µM, 170 µM and 24 µM.
For `O=C(CP(=O)(O)OCc1ccccc1)c1ccc(-c2ccccc2)cc1`, the Ki is > 1000 µM in assay [1], 230 µM in assay [2], 190 µM in assay [3] and > 1000 µM in assay [4].
In the case of `O=C(CP(=O)(O)OCc1ccccc1)c1ccc2[nH]c(=O)oc2c1`, the Ki in assay [1] amounted to 1500 µM; in assay [2], 270 µM; in assay [3], 70 µM.
The corresponding values for `Cc1onc(-c2ccccc2Cl)c1C(=O)CP(=O)(O)OCc1ccccc1` are > 1000 µM, 430 µM and > 1000 µM.
